From ChEMBL document CHEMBL1201862, “PubChem BioAssay data set” (2004)
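1) Cells in 96-well plates. 2) Compound, 48 h, 5 concentrations. 3) Linear interpolation between surrounding doses. 4) Unreached endpoint = highest concentration. GI50 marks 50% less growth.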 Calls of active or inactive are those of the source. Rule as the data show it: active = GI50 up to about 1.1 µM and inactive = higher.

What was measured:
Assay in all cases: growth of human tumour cells (NCI), 48 h
SF-295 = tested on: SF-295
CAKI-1 = tested on: CAKI-1
SK-MEL-5 = tested on: SK-MEL-5
NCI-H23 = tested on: NCI-H23
OVCAR-5 = tested on: OVCAR-5
OVCAR-4 = tested on: OVCAR-4
SR = tested on: SR
PC-3 = tested on: PC-3
OVCAR-8 = tested on: OVCAR-8
UACC-257 = tested on: UACC-257
NCI-H226 = tested on: NCI-H226
EKVX = tested on: EKVX
TK-10 = tested on: TK-10
NCI-H460 = tested on: NCI-H460
RPMI-8226 = tested on: RPMI-8226
SF-268 = tested on: SF-268
M14 = tested on: M14
SK-MEL-28 = tested on: SK-MEL-28
A549 = tested on: A549
MCF7 = tested on: MCF7

Which results are given for `COc1ccnc2c1C(=O)c1nc3ccccc3c3ccnc-2c13`?
GI50 (SF-295): 0.169 µM (active); GI50 (CAKI-1): 0.181 µM (active); GI50 (SK-MEL-5): 0.0317 µM (active); GI50 (NCI-H23): 0.271 µM (active); GI50 (OVCAR-5): 0.52 µM (active); GI50 (OVCAR-4): 0.307 µM (active); GI50 (SR): 0.0343 µM (active); GI50 (PC-3): 0.141 µM (active); GI50 (OVCAR-8): 0.0512 µM (active); GI50 (UACC-257): 0.198 µM (active); GI50 (NCI-H226): 0.17 µM (active); GI50 (EKVX): 0.284 µM (active); GI50 (TK-10): 0.324 µM (active); GI50 (NCI-H460): 0.0232 µM (active); GI50 (RPMI-8226): 0.201 µM (active); GI50 (SF-268): 0.137 µM (active); GI50 (M14): 0.0418 µM (active); GI50 (SK-MEL-28): 0.305 µM (active); GI50 (A549): 0.142 µM (active); GI50 (MCF7): 0.0807 µM (active)

`O=C1CCCC1C(=O)Nc1ccc2ccccc2c1` (stereo not given) was tested. Which GI50 (SF-295) did it give?
Its GI50 is > 100 µM (inactive).

What about the GI50 (CAKI-1) of the same compound?
The GI50 was > 100 µM (inactive).

What about the GI50 (SK-MEL-5) of the same compound?
Its GI50 is > 100 µM (inactive).

And the GI50 (NCI-H23)?
Its GI50 is > 100 µM (inactive).

What about the GI50 (OVCAR-5) of the same compound?
The GI50 was > 100 µM (inactive).

And the GI50 (OVCAR-4)?
The GI50 was > 100 µM (inactive).

What about the GI50 (SR) of the same compound?
The GI50 was > 100 µM (inactive).

And the GI50 (PC-3)?
The GI50 was > 100 µM (inactive).

What about the GI50 (OVCAR-8) of the same compound?
The GI50 was > 100 µM (inactive).

What about the GI50 (UACC-257) of the same compound?
The GI50 was > 100 µM (inactive).

And the GI50 (NCI-H226)?
Its GI50 is > 100 µM (inactive).

What about the GI50 (EKVX) of the same compound?
The GI50 was 32.1 µM (inactive).

And the GI50 (TK-10)?
Its GI50 is > 100 µM (inactive).

What about the GI50 (NCI-H460) of the same compound?
Its GI50 is > 100 µM (inactive).

What about the GI50 (RPMI-8226) of the same compound?
The GI50 was 59.2 µM (inactive).

What about the GI50 (SF-268) of the same compound?
Its GI50 is > 100 µM (inactive).

And the GI50 (M14)?
Its GI50 is > 100 µM (inactive).

What about the GI50 (SK-MEL-28) of the same compound?
Its GI50 is > 100 µM (inactive).

And the GI50 (A549)?
Its GI50 is > 100 µM (inactive).

What about the GI50 (MCF7) of the same compound?
The GI50 was > 100 µM (inactive).

How did the GI50 (SF-295) turn out when `COc1ccc(/C=C2\C[C@H]3[C@@H]4CCC5=C[C@@H](N6CCCC6)CC[C@]5(C)[C@H]4CC[C@]3(C)[C@H]2O)cc1` was run?
The GI50 was 2.3 µM (inactive).

And the GI50 (CAKI-1)?
The GI50 was 3.52 µM (inactive).

What about the GI50 (SK-MEL-5) of the same compound?
The GI50 was 1.55 µM (inactive).

What about the GI50 (NCI-H23) of the same compound?
The GI50 was 3.44 µM (inactive).

What about the GI50 (OVCAR-5) of the same compound?
The GI50 was 4.81 µM (inactive).

And the GI50 (OVCAR-4)?
The GI50 was 3.59 µM (inactive).

What about the GI50 (SR) of the same compound?
The GI50 was 1.01 µM (active).

What about the GI50 (PC-3) of the same compound?
Its GI50 is 2.25 µM (inactive).

What about the GI50 (OVCAR-8) of the same compound?
The GI50 was 3.52 µM (inactive).

What about the GI50 (UACC-257) of the same compound?
The GI50 was 1.4 µM (inactive).

What about the GI50 (NCI-H226) of the same compound?
Its GI50 is 3.13 µM (inactive).

And the GI50 (EKVX)?
Its GI50 is 3.81 µM (inactive).

And the GI50 (TK-10)?
Its GI50 is 2.43 µM (inactive).

And the GI50 (NCI-H460)?
Its GI50 is 2.49 µM (inactive).

And the GI50 (RPMI-8226)?
Its GI50 is 2.97 µM (inactive).

What about the GI50 (SF-268) of the same compound?
The GI50 was 2.92 µM (inactive).

What about the GI50 (M14) of the same compound?
The GI50 was 1.51 µM (inactive).

What about the GI50 (SK-MEL-28) of the same compound?
Its GI50 is 1.87 µM (inactive).

And the GI50 (A549)?
Its GI50 is 2.58 µM (inactive).

And the GI50 (MCF7)?
The GI50 was 1.93 µM (inactive).

Which GI50 (SF-295) does the source give for `C[C@@H]1CC[C@H]2C(C)(C)[C@H]3C[C@@]12CC[C@@]3(C)O` [CEDROL] here?
The GI50 was > 100 µM (inactive).

And the GI50 (CAKI-1)?
The GI50 was > 100 µM (inactive).

What about the GI50 (SK-MEL-5) of the same compound?
Its GI50 is 42.7 µM (inactive).

What about the GI50 (NCI-H23) of the same compound?
Its GI50 is > 100 µM (inactive).

And the GI50 (OVCAR-5)?
The GI50 was > 100 µM (inactive).

And the GI50 (OVCAR-4)?
Its GI50 is > 100 µM (inactive).

What about the GI50 (SR) of the same compound?
Its GI50 is 18.7 µM (inactive).

What about the GI50 (PC-3) of the same compound?
Its GI50 is > 100 µM (inactive).

And the GI50 (OVCAR-8)?
The GI50 was > 100 µM (inactive).

What about the GI50 (UACC-257) of the same compound?
The GI50 was > 100 µM (inactive).

And the GI50 (NCI-H226)?
Its GI50 is 77.1 µM (inactive).

And the GI50 (EKVX)?
Its GI50 is > 100 µM (inactive).

What about the GI50 (TK-10) of the same compound?
Its GI50 is > 100 µM (inactive).

And the GI50 (NCI-H460)?
The GI50 was 18.2 µM (inactive).

What about the GI50 (RPMI-8226) of the same compound?
Its GI50 is 24.6 µM (inactive).

And the GI50 (SF-268)?
The GI50 was > 100 µM (inactive).

And the GI50 (M14)?
Its GI50 is > 100 µM (inactive).

What about the GI50 (SK-MEL-28) of the same compound?
Its GI50 is 60 µM (inactive).

And the GI50 (A549)?
Its GI50 is 42.7 µM (inactive).

And the GI50 (MCF7)?
The GI50 was > 100 µM (inactive).

How did the GI50 (SF-295) turn out when `C=C(CC)C(=O)c1ccc(OCC(=O)O)c(Cl)c1Cl` [ETHACRYNIC ACID] was run?
Its GI50 is 35.6 µM (inactive).

And the GI50 (CAKI-1)?
The GI50 was 14.9 µM (inactive).

And the GI50 (SK-MEL-5)?
The GI50 was 25.8 µM (inactive).

What about the GI50 (NCI-H23) of the same compound?
Its GI50 is 25 µM (inactive).

And the GI50 (OVCAR-5)?
Its GI50 is 29.8 µM (inactive).

And the GI50 (OVCAR-4)?
Its GI50 is 20 µM (inactive).

What about the GI50 (SR) of the same compound?
The GI50 was 31.6 µM (inactive).

And the GI50 (PC-3)?
Its GI50 is 24.9 µM (inactive).

And the GI50 (OVCAR-8)?
Its GI50 is 17.5 µM (inactive).

And the GI50 (UACC-257)?
Its GI50 is 18.9 µM (inactive).

What about the GI50 (NCI-H226) of the same compound?
The GI50 was 15.5 µM (inactive).

What about the GI50 (EKVX) of the same compound?
Its GI50 is 17.5 µM (inactive).

What about the GI50 (TK-10) of the same compound?
The GI50 was 16.1 µM (inactive).

What about the GI50 (NCI-H460) of the same compound?
Its GI50 is 44.3 µM (inactive).

And the GI50 (RPMI-8226)?
Its GI50 is 14.5 µM (inactive).

And the GI50 (SF-268)?
The GI50 was 16.7 µM (inactive).

And the GI50 (M14)?
The GI50 was 18.5 µM (inactive).

And the GI50 (SK-MEL-28)?
Its GI50 is 17.6 µM (inactive).

What about the GI50 (A549) of the same compound?
The GI50 was > 91.8 µM (inactive).

And the GI50 (MCF7)?
The GI50 was 6.05 µM (inactive).

With `CCCCCC/C=C\CCCCCCCCCc1cccc(O)c1C(=O)O` [GINKGOLIC ACID 17:1] as the compound, how does the GI50 (SF-295) read?
Its GI50 is 59.3 µM (inactive).

And the GI50 (CAKI-1)?
Its GI50 is > 100 µM (inactive).

What about the GI50 (SK-MEL-5) of the same compound?
Its GI50 is 35.5 µM (inactive).

And the GI50 (NCI-H23)?
Its GI50 is > 100 µM (inactive).

And the GI50 (OVCAR-5)?
Its GI50 is > 100 µM (inactive).

And the GI50 (OVCAR-4)?
The GI50 was > 100 µM (inactive).

And the GI50 (SR)?
Its GI50 is 45.4 µM (inactive).

What about the GI50 (PC-3) of the same compound?
The GI50 was 51.9 µM (inactive).

What about the GI50 (OVCAR-8) of the same compound?
Its GI50 is > 100 µM (inactive).

What about the GI50 (UACC-257) of the same compound?
Its GI50 is > 100 µM (inactive).

What about the GI50 (NCI-H226) of the same compound?
Its GI50 is 60.7 µM (inactive).

What about the GI50 (EKVX) of the same compound?
Its GI50 is > 100 µM (inactive).

And the GI50 (TK-10)?
The GI50 was 65 µM (inactive).

What about the GI50 (NCI-H460) of the same compound?
Its GI50 is > 100 µM (inactive).

What about the GI50 (RPMI-8226) of the same compound?
Its GI50 is 84.3 µM (inactive).

And the GI50 (SF-268)?
Its GI50 is > 100 µM (inactive).

And the GI50 (M14)?
Its GI50 is > 100 µM (inactive).

And the GI50 (SK-MEL-28)?
Its GI50 is > 100 µM (inactive).

What about the GI50 (A549) of the same compound?
Its GI50 is > 100 µM (inactive).

What about the GI50 (MCF7) of the same compound?
Its GI50 is > 100 µM (inactive).
